{
  "source": "ChEMBL document CHEMBL1135259",
  "about": "“Azapeptides as inhibitors of the hepatitis C virus NS3 serine protease” (Bioorg Med Chem Lett, 2002)",
  "data": [
    {"molecular_target": "NS3 (Hepatitis C virus) (UniProt A3EZJ3)", "sequence (A3EZJ3 as listed by the source)": "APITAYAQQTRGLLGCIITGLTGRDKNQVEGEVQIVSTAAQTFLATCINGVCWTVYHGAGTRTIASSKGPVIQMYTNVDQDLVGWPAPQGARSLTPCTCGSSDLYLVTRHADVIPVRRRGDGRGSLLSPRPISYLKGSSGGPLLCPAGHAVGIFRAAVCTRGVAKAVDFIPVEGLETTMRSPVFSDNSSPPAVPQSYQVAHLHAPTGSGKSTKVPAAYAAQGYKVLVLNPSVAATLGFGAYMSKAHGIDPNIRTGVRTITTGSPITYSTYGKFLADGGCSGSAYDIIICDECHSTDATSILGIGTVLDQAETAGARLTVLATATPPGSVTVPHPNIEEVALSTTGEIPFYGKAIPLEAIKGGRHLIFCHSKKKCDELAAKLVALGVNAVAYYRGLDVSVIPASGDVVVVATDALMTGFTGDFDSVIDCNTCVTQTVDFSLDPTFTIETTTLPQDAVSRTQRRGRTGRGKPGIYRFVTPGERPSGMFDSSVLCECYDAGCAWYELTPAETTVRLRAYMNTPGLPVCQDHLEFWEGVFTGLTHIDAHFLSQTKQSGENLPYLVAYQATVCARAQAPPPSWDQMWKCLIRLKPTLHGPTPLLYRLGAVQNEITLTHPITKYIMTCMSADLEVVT", "assay": "Binding affinity against Hepatitis C virus NS3 protease was calculated as Kcat", "settings": "Hepacivirus hominis", "units": {"k cat": "s⁻¹"}, "values": [
      {"smiles": "CCCN(NC(=O)[C@H]1CCCN1C(=O)[C@@H](NC(=O)[C@@H](NC(=O)[C@H](CC(=O)O)NC(=O)[C@H](CCC(=O)O)NC(C)=O)C(C)C)C(C)C)C(=O)Oc1ccc([N+](=O)[O-])cc1", "k cat": 0.00833},
      {"smiles": "CCCN(NC(=O)[C@H]1CCCN1C(=O)[C@@H](NC(=O)[C@@H](NC(C)=O)C(C)C)C(C)C)C(=O)Oc1ccc([N+](=O)[O-])cc1", "k cat": 0.00667},
      {"smiles": "CCCN(NC(=O)[C@H]1CCCN1C(=O)[C@@H](NC(=O)[C@@H](NC(=O)[C@H](CC(=O)O)NC(=O)[C@H](CCC(=O)O)NC(=O)[C@@H](NC(C)=O)[C@@H](C)O)C(C)C)C(C)C)C(=O)Oc1ccc([N+](=O)[O-])cc1", "k cat": 0.00833},
      {"smiles": "CCCN(NC(=O)[C@H]1CCCN1C(=O)[C@@H](NC(=O)[C@@H](NC(=O)[C@H](CC(=O)O)NC(C)=O)C(C)C)C(C)C)C(=O)Oc1ccc([N+](=O)[O-])cc1", "k cat": 0.00833},
      {"smiles": "CCCC(NC(=O)[C@H]1CCCN1C(=O)[C@@H](NC(=O)[C@@H](NC(=O)[C@H](CC(=O)O)NC(=O)[C@H](CCC(=O)O)NC(=O)[C@@H](NC(=O)[C@H](CC(=O)O)NC(C)=O)[C@@H](C)O)C(C)C)C(C)C)C(=O)Oc1ccc([N+](=O)[O-])cc1", "note": "(stereo not given in full)", "k cat": 1.67}
    ]}
  ]
}
